Assay results as given in patent publication US7846930B2, “Diaryl-substituted tetrahydroisoquinolines as histamine H3 receptor and serotonin transporter modulators” (Janssen Pharmaceutica NV, priority 2007, dated 2010).
Counter-ions that a name gives are not always drawn.

Tests used:
[1] = molecular target: T1, cloned human H3 receptors, stably expressed in SK-N-MC cells (Homo sapiens, UniProt Q9Y5N1); test: H3 receptor binding
T1 construct: expressed in transfected cells
Protocol: Binding of compounds to the cloned human H3 receptors, stably expressed in SK-N-MC cells, was performed as described by Barbier, A. J. et al. (Br. J. Pharmacol. 2004, 143(5), 649-661).

[2] = molecular target: T2, Rat brain SERT (Rattus norvegicus, UniProt P31652); test: Rat brain SERT [3H]-citalopram binding; details: rat brain membranes, 0.6 nM [3H]-Citalopram, 60 min at 25° C.
T2 construct: A rat brain without cerebellum (Zivic Laboratories, Inc.-Pittsburgh, Pa.) was homogenized; tissue Zivic Laboratories, Inc; host or cells: rat brain without cerebellum, membrane preparation
T2 sequence (P31652 whole entry): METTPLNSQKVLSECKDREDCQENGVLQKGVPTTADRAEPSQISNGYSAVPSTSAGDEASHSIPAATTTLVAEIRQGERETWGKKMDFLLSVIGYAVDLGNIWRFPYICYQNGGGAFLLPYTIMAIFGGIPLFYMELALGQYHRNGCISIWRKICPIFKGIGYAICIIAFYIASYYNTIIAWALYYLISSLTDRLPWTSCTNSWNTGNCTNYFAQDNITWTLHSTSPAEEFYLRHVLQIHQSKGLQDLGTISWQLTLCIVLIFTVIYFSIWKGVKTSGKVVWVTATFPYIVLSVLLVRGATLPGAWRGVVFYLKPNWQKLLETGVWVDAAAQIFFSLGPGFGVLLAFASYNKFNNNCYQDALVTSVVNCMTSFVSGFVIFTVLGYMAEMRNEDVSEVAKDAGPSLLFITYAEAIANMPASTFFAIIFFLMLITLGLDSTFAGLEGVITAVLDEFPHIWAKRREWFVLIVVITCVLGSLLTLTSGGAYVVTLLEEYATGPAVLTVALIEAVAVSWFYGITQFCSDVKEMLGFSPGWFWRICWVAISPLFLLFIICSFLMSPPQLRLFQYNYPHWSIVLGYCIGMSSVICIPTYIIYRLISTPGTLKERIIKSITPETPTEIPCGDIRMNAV
Protocol: A rat brain without cerebellum (Zivic Laboratories, Inc.-Pittsburgh, Pa.) was homogenized in a 52.6 mM Tris pH 8/126.4 mM NaCl/5.26 mM KCl mixture and centrifuged at 1,000 rpm for 5 min. The supernatant was removed and re-centrifuged at 15,000 rpm for 30 min. Pellets were re-homogenized in a 52.6 mM Tris pH8/126.4 mM NaCl/5.26 mM KCl mixture. Membranes were incubated with 0.6 nM [^3H]-Citalopram plus/minus test compounds for 60 min at 25° C. and harvested by rapid filtration over GF/C glass fiber filters (pretreated with 0.3% polyethylenimine) followed by four washes with ice-cold buffer. Nonspecific binding was defined in the presence of 100 μM fluoxetine. IC50 values were determined by a single site curve-fitting program (GraphPad, San Diego, Calif.) and converted to Ki values based on a [^3H]-Citalopram Kd of 0.6 nM and a ligand concentration of 0.6 nM.

[3] = molecular target: T3, human SERT (HEK293 membranes) (Homo sapiens, UniProt P31645); test: Human SERT 3H-citalopram binding; details: HEK293 membranes expressing human SERT, rt 1 h
T3 construct: expressed in transfected cells; host or cells: HEK293
T3 sequence (P31645 whole entry): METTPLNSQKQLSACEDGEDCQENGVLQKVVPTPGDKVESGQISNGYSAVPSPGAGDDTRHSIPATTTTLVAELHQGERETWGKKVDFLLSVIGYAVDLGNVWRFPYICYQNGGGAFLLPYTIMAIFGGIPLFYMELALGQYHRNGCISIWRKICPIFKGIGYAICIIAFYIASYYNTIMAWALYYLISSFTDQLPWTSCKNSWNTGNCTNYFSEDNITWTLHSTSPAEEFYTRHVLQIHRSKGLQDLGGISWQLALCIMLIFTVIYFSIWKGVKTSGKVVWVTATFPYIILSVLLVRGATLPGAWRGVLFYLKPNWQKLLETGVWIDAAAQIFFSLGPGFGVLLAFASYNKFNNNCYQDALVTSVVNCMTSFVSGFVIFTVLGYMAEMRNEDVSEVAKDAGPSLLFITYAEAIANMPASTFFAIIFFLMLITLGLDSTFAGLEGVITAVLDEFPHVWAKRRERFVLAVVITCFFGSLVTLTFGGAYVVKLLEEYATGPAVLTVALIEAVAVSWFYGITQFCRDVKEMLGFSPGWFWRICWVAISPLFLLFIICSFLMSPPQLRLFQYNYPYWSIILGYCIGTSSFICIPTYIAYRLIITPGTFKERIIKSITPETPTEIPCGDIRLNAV
Protocol: Homogenized HEK293 (Human Embryonic Kidney) membranes expressing the human SERT were incubated with ^3H-citalopram (SERT) at rt for 1 h in 50 mM Tris, 120 mM NaCl, 5 mM KCl (pH 7.4). Nonspecific binding was determined in the presence of 10 μM fluoxetine for the SERT. The membranes were washed and the radioactivity was counted as above. Calculations for Ki at the SERT were based on a Kd value for ^3H-citalopram and a ligand concentration of 3.1 nM.

T1 sequence (Q9Y5N1 whole entry): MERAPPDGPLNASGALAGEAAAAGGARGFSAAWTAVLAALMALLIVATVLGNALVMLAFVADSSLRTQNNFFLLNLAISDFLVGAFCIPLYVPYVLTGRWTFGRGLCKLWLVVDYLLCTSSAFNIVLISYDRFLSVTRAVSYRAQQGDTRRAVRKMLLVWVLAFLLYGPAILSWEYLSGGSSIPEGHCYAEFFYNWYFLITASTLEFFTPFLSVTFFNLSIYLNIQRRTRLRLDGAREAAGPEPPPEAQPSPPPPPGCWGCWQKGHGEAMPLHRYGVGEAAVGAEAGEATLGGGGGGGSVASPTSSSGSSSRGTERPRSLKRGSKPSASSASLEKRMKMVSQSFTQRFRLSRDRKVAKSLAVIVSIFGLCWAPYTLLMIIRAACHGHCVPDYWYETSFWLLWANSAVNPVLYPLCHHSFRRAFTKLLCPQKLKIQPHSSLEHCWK

SMILES | Ki [1] | Ki [2] | Ki [3]
CSc1ccc(C2CN(C)Cc3cc(Oc4cccc(CN5CCCCC5)c4)ccc32)cc1 (stereo not shown) [Example 1A, 2-Methyl-4-(4-methylsulfanyl-phenyl)-7-(3-piperidin-1-ylmethyl-phenoxy)-1,2,3,4-tetrahydro-isoquinoline trifluoroacetic acid salt] | 18 nM | 11.7 nM | 17.7 nM
CSc1ccc(C2CN(C)Cc3cccc(Oc4cccc(CN5CCCCC5)c4)c32)cc1 (stereo not shown) [Example 1B, 2-Methyl-4-(4-methylsulfanyl-phenyl)-5-(3-piperidin-1-ylmethyl-phenoxy)-1,2,3,4-tetrahydro-isoquinoline Trifluoroacetic Acid Salt] | 253 nM | 403 nM | 616 nM
CSc1ccc(C2CN(C)Cc3cc(Oc4cccc(CN5CCCCC5)n4)ccc32)cc1 (stereo not shown) [Example 2, 2-Methyl-4-(4-methylsulfanyl-phenyl)-7-(6-piperidin-1-ylmethyl-pyridin-2-yloxy)-1,2,3,4-tetrahydro-isoquinoline Trifluoroacetic Acid Salt] | 51 nM | 11.7 nM | 22 nM
CSc1ccc(C2CN(C)Cc3cc(Oc4ccnc(CN5CCCCC5)c4)ccc32)cc1 (stereo not shown) [Example 3A, 2-2-Methyl-4-(4-methylsulfanyl-phenyl)-7-(2-piperidin-1-ylmethyl-pyridin-4-yloxy)-1,2,3,4-tetrahydro-isoquinoline Trifluoroacetic Acid Salt] | 323 nM | 25.7 nM | 10.4 nM
CSc1ccc(C2CN(C)Cc3cccc(Oc4ccnc(CN5CCCCC5)c4)c32)cc1 (stereo not shown) [Example 3B, 2-Methyl-4-(4-methylsulfanyl-phenyl)-5-(2-piperidin-1-ylmethyl-pyridin-4-yloxy)-1,2,3,4-tetrahydro-isoquinoline Trifluoroacetic Acid Salt] | 265 nM | 182 nM | 157 nM
CSc1ccc(C2CN(C)Cc3cccc(Oc4cncc(CN5CCCCC5)c4)c32)cc1 (stereo not shown) [Example 4B, 2-Methyl-4-(4-methylsulfanyl-phenyl)-5-(5-piperidin-1-ylmethyl-pyridin-3-yloxy)-1,2,3,4-tetrahydro-isoquinoline Trifluoroacetic Acid Salt] | 511 nM | 174 nM | 262 nM
CSc1ccc(C2CN(C)Cc3cc(Oc4cc(CN5CCCCC5)ccn4)ccc32)cc1 (stereo not shown) [Example 5, 2-Methyl-4-(4-methylsulfanyl-phenyl)-7-(4-piperidin-1-ylmethyl-pyridin-2-yloxy)-1,2,3,4-tetrahydro-isoquinoline] | 34.3 nM | 8.7 nM | 2.4 nM
CSc1ccc(C2CN(C)Cc3cc(Oc4nc(CN5CCCCC5)cs4)ccc32)cc1 (stereo not shown) [Example 6, 2-Methyl-4-(4-methylsulfanyl-phenyl)-7-(4-piperidin-1-ylmethyl-thiazol-2-yloxy)-1,2,3,4-tetrahydro-isoquinoline] | 20.7 nM | 5.2 nM | 4.3 nM
CSc1ccc(C2CN(C)Cc3cc(Oc4ccc(CN5CCCCC5)cn4)ccc32)cc1 (stereo not shown) [Example 7, 2-Methyl-4-(4-methylsulfanyl-phenyl)-7-(5-piperidin-1-ylmethyl-pyridin-2-yloxy)-1,2,3,4-tetrahydro-isoquinoline] | 8.2 nM | 4.5 nM | 2.3 nM
CSc1ccc(C2CN(C)Cc3cc(Oc4ccc(CN5CCCCC5)nc4)ccc32)cc1 (stereo not shown) [Example 8, 2-Methyl-4-(4-methylsulfanyl-phenyl)-7-(6-piperidin-1-ylmethyl-pyridin-3-yloxy)-1,2,3,4-tetrahydro-isoquinoline] | 24.3 nM | 7.5 nM | 8 nM
CSc1ccc(C2CN(C)Cc3cc(Oc4ccc(CN5CCCCC5)cc4)ccc32)cc1 (stereo not shown) [Example 9, 2-Methyl-4-(4-methylsulfanyl-phenyl)-7-(4-piperidin-1-ylmethyl-phenoxy)-1,2,3,4-tetrahydro-isoquinoline] | 22.7 nM | 4.3 nM | 3.8 nM
CSc1ccc(C2CN(C)Cc3cc(Oc4ccc(CN5CCOCC5)cn4)ccc32)cc1 (stereo not shown) [Example 10, 2-Methyl-4-(4-methylsulfanyl-phenyl)-7-(5-morpholin-4-ylmethyl-pyridin-2-yloxy)-1,2,3,4-tetrahydro-isoquinoline] | 260 nM | 11 nM | 7.9 nM
CSc1ccc(C2CN(C)Cc3cc(Oc4nc(CN5CCOCC5)cs4)ccc32)cc1 (stereo not shown) [Example 11, 2-Methyl-4-(4-methylsulfanyl-phenyl)-7-(4-morpholin-4-ylmethyl-thiazol-2-yloxy)-1,2,3,4-tetrahydro-isoquinoline] | 201 nM |  | 
CSc1ccc(C2CN(C)Cc3cc(Oc4ccc(CN5CCC(F)CC5)cn4)ccc32)cc1 (stereo not shown) [Example 12, 7-[5-(4-Fluoro-piperidin-1-ylmethyl)-pyridin-2-yloxy]-2-methyl-4-(4-methylsulfanyl-phenyl)-1,2,3,4-tetrahydro-isoquinoline] | 110 nM | 14.3 nM | 6.5 nM
CSc1ccc(C2CN(C)Cc3cc(Oc4ncc(CN5CCCCC5)s4)ccc32)cc1 (stereo not shown) [Example 13, 2-Methyl-4-(4-methylsulfanyl-phenyl)-7-(5-piperidin-1-ylmethyl-thiazol-2-yloxy)-1,2,3,4-tetrahydro-isoquinoline] | 20.7 nM | 4 nM | 3.2 nM
